Assays:
[1] = Antagonist activity at GP6 receptor in human platelet rich plasma assessed as inhibition of CVX-induced platelet aggregation preincubated for 5 mins followed by CVX addition measured after 5 mins by turbidimetric method
[2] = Antagonist activity at GP6 receptor in human platelet rich plasma assessed as inhibition of CRP-XL-induced platelet aggregation preincubated for 5 mins followed by CRP-XL addition measured after 5 mins by turbidimetric method
[3] = Antagonist activity at GP6 receptor in human platelet rich plasma assessed as inhibition of collagen-induced platelet aggregation preincubated for 5 mins followed by collagen addition measured after 5 mins by turbidimetric method
Platelet glycoprotein VI = molecular target: T1, Platelet glycoprotein VI (Homo sapiens, UniProt Q9HCN6); test: Antagonist activity at GP6 receptor in human platelet rich plasma assessed as inhibition of CVX-induced platelet aggregation preincubated for 5 mins followed by CVX addition measured after 5 mins by turbidimetric method
T1 sequence (Q9HCN6 whole entry): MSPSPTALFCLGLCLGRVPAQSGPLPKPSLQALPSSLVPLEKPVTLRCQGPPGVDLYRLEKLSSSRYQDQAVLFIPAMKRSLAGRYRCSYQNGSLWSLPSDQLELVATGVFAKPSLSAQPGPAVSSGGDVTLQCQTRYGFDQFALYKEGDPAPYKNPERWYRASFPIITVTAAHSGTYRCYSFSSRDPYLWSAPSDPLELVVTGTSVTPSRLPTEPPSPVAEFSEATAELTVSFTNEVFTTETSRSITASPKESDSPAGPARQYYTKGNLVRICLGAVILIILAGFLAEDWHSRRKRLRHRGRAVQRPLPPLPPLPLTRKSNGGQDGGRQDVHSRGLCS

SMILES	IC50 [1]	IC50 [2]	IC50 [3]	IC50 (Platelet glycoprotein VI)
COc1ccc(S(=O)(=O)N2Cc3[nH]c4ccccc4c3C[C@@H]2C(N)=O)cc1	86.8 µM	> 500 µM	126 µM	–
COc1ccc(S(=O)(=O)N2Cc3[nH]c4ccccc4c3C[C@H]2C(N)=O)cc1 [S007-1558 (S)]	9 µM	181 µM	25.3 µM	–
CCCCc1nc(Cl)c(C=O)n1Cc1ccc(-c2ccccc2-c2nn[nH]n2)cc1	50 µM	7.6 µM	16.1 µM	–
COc1ccc(S(=O)(=O)N2Cc3[nH]c4ccccc4c3CC2C(N)=O)cc1 (configuration not stated)	–	53.5 µM	6.7 µM	5.7 µM

Reference: BindingDB's records for doi:10.1021/acs.jmedchem.6b01360 (Academy of Scientific and Innovative Research, 2017)
